This test concerns the target ROCK2 (Homo sapiens (Human), UniProt O75116). Briefly: Rho Kinase Inhibition Assay (IMAP fluorescence polarization). Type of test: biochemical. To be noted: isolated enzyme, 10 μM ATP, 60 minutes at room temperature. The method, then:
Following the preincubation, 10 μM ATP was added to initiate the reaction. After 60 minutes at room temperature, Molecular Devices IMAP™ binding solution was added to bind phosphorylated substrate. After 30 minutes of incubation in the presence of the IMAP™ beads the fluorescence polarization was read and the ratio was reported as mP. IC50 results were calculated using the Prism software from Graphpad.
See Tian et al., Arch. Ophthalmol. […] Ophthalmol. Vis. […] Ophthalmol. […] Cytoskel. […] Ophthalmol. Vis. […] Ophthalmol. Vis.
ROCK2, sequence (O75116 11-552): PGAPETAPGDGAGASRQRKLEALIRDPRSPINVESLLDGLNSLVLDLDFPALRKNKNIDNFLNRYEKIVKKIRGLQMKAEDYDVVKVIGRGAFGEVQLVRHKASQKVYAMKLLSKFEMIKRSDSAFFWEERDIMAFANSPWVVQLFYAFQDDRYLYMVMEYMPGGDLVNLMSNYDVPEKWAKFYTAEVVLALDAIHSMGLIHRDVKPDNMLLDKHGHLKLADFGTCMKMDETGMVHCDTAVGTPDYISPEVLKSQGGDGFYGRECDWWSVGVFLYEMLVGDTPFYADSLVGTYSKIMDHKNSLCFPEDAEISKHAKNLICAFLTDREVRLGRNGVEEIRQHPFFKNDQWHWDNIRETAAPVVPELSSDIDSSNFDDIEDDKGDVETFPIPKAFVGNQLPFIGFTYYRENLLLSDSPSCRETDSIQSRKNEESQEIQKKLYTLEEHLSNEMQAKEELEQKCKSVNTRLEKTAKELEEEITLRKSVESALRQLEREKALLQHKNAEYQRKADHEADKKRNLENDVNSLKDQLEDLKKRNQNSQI
In turn, `OC[C@@H](O)COc1cccc(CN2CCC[C@@H](Nc3ccc4[nH]ncc4c3)C2)c1` [Compound 1.115, (R)-3-(3-(((R)-3-(1H-indazol-5-ylamino)piperidin-1-yl)methyl)phenoxy)propane-1,2-diol] registered an IC50 of 555 nM.

Regarding `Cc1ccc(CN2CCCC(Nc3ccc4[nH]ncc4c3)C2)cc1OCCO` (stereo not shown) [Compound 1.058, 2-(5-((3-(1H-indazol-5-ylamino)piperidin-1-yl)methyl)-2-methylphenoxy)ethanol], the midpoint of inhibition, the IC50, lay at 47.5 nM.

Take `FC(F)(F)Oc1ccc(CN2CCCC(Nc3ccc4[nH]ncc4c3)C2)cc1` (stereo not shown) [Compound 1.022, N-(1-(4-(trifluoromethoxy)benzyl)piperidin-3-yl)-1H-indazol-5-amine]: inhibition was half-maximal at 1610 nM (IC50).

Molecule `CS(=O)(=O)Nc1cccc(CN2CC[C@@H](Nc3ccc4[nH]ncc4c3)C2)c1` [Compound 1.097, (R)-N-(3-((3-(1H-indazol-5-ylamino)pyrrolidin-1-yl)methyl)phenyl)methanesulfonamide] returned an IC50 of 276 nM.

`CC(C)c1ccc(CN2CCCC(Nc3ccc4[nH]ncc4c3)C2)cc1` (stereo not shown) [Compound 1.023, N-(1-(4-isopropylbenzyl)piperidin-3-yl)-1H-indazol-5-amine] registered an IC50 of 334 nM.

`CN(C)c1ccc(CN2CCCC(Nc3ccc4[nH]ncc4c3)C2)cc1` (stereo not shown) [Compound 1.032, N-(1-(4-(dimethylamino)benzyl)piperidin-3-yl)-1H-indazol-5-amine] gave an IC50 of 1940 nM.

On to `CC(C)Cc1ccc(CN2CCCC(Nc3ccc4[nH]ncc4c3)C2)cc1` (stereo not shown) [Compound 1.013, N-(1-(4-isobutylbenzyl)piperidin-3-yl)-1H-indazol-5-amine], for which 3660 nM corresponded to half-maximal inhibition (IC50).

Regarding `CCCCc1ccc(CN2CCCC(Nc3ccc4[nH]ncc4c3)C2)cc1` (stereo not shown) [Compound 1.014, N-(1-(4-butylbenzyl)piperidin-3-yl)-1H-indazol-5-amine], 4690 nM corresponded to half-maximal inhibition (IC50).

Take `C[C@@H](O)COc1cccc(CN2CCC[C@@H](Nc3ccc4[nH]ncc4c3)C2)c1` [Compound 1.116, (R)-1-(3-(((R)-3-(1H-indazol-5-ylamino)piperidin-1-yl)methyl)phenoxy)propan-2-ol]: the IC50 is 862 nM.

As to `CS(=O)(=O)Nc1cccc(CN2CCC(Nc3ccc4[nH]ncc4c3)C2)c1` (stereo not shown) [Compound 1.087, N-(3-((3-(1H-indazol-5-ylamino)pyrrolidin-1-yl)methyl)phenyl)methanesulfonamide], the IC50 is 280 nM.

On to `c1cc(SC2CC2)ccc1CN1CCCC(Nc2ccc3[nH]ncc3c2)C1` (stereo not shown) [Compound 1.026, N-(1-(4-(cyclopropylthio)benzyl)piperidin-3-yl)-1H-indazol-5-amine], for which the IC50 was determined as 2130 nM.

For the molecule `CC(=O)c1ccc(CN2CCCC(Nc3ccc4[nH]ncc4c3)C2)cc1` (stereo not shown) [Compound 1.036, 1-(4-((3-(1H-indazol-5-ylamino)piperidin-1-yl)methyl)phenyl)ethanone], the half-maximal inhibitory concentration (IC50) worked out at 1020 nM.

In the case of `CC(C)(C)OC(=O)Cn1ccc2cc(CN3CCCC(Nc4ccc5[nH]ncc5c4)C3)ccc21` (stereo not shown) [Compound 1.112, tert-butyl 2-(5-((3-(1H-indazol-5-ylamino)piperidin-1-yl)methyl)-1H-indol-1-yl)acetate], the IC50 was 2030 nM.

In the case of `CCS(=O)(=O)Nc1cccc(CN2CC[C@@H](Nc3cccc4cnccc34)C2)c1` [Compound 2.041, (R)-N-(3-((3-(isoquinolin-5-ylamino)pyrrolidin-1-yl)methyl)phenyl)ethanesulfonamide], the IC50 was 168 nM.

`OCCOc1cccc(CN2CCC[C@H](Nc3ccc4[nH]ncc4c3)C2)c1` [Compound 1.090, (S)-2-(3-((3-(1H-indazol-5-ylamino)piperidin-1-yl)methyl)phenoxy)ethanol] showed an IC50 of 354 nM.

As to `CC(C)Oc1ccc(CN2CCCC(Nc3ccc4[nH]ncc4c3)C2)cc1` (stereo not shown) [Compound 1.015, N-(1-(4-isopropoxybenzyl)piperidin-3-yl)-1H-indazol-5-amine], the IC50 worked out at 9980 nM.

On to `N#Cc1cccc(CN2CCCC(Nc3cccc4cnccc34)C2)c1` (stereo not shown) [Compound 2.003, 3-((3-(isoquinolin-5-ylamino)piperidin-1-yl)methyl)benzonitrile], for which the IC50 is 5720 nM.

In turn, `CS(=O)(=O)Nc1cccc(CN2CCC[C@@H](Nc3cccc4cnccc34)C2)c1` [Compound 2.033, (R)-N-(3-((3-(isoquinolin-5-ylamino)piperidin-1-yl)methyl)phenyl)methanesulfonamide] returned an IC50 of 3060 nM.

`OCC#Cc1ccc(CN2CCCC(Nc3ccc4[nH]ncc4c3)C2)cc1` (stereo not shown) [Compound 1.042, 3-(4-((3-(1H-indazol-5-ylamino)piperidin-1-yl)methyl)phenyl)prop-2-yn-1-ol] came in with an IC50 of 4400 nM.

For the molecule `N#Cc1ccc(CN2CCCC(Nc3ccc4[nH]ncc4c3)C2)cc1` (stereo not shown) [Compound 1.038, 4-((3-(1H-indazol-5-ylamino)piperidin-1-yl)methyl)benzonitrile], the IC50 turned out to be 2760 nM.

`Oc1cccc(CN2CCCC(Nc3ccc4[nH]ncc4c3)C2)c1` (stereo not shown) [Compound 1.046, 3-((3-(1H-indazol-5-ylamino)piperidin-1-yl)methyl)phenol] displayed an IC50 of 156 nM.

Consider `OCCOc1cccc(CN2CC[C@@H](Nc3ccc4[nH]ncc4c3)C2)c1` [Compound 1.096, (R)-2-(3-((3-(1H-indazol-5-ylamino)pyrrolidin-1-yl)methyl)phenoxy)ethanol], for which half-maximal inhibition (IC50) was put at 1300 nM.

On to `OCCN1CCc2ccc(CN3CCCC(Nc4ccc5[nH]ncc5c4)C3)cc21` (stereo not shown) [Compound 1.104, 2-(6-((3-(1H-indazol-5-ylamino)piperidin-1-yl)methyl)indolin-1-yl)ethanol], for which the IC50 is 107 nM.

For `NCCOc1cccc(CN2CCCC(Nc3ccc4[nH]ncc4c3)C2)c1` (stereo not shown) [Compound 1.085, N-(1-(3-(2-aminoethoxy)benzyl)piperidin-3-yl)-1H-indazol-5-amine], the IC50 is 1680 nM.

`Cc1ccc(CN2CC[C@H](Nc3cccc4cnccc34)C2)cc1` [Compound 2.028, (S)-N-(1-(4-methylbenzyl)pyrrolidin-3-yl)isoquinolin-5-amine]: inhibition was half-maximal at 789 nM (IC50).

`c1cc2c(cc1CN1CCCC(Nc3ccc4[nH]ncc4c3)C1)OCCO2` (stereo not shown) [Compound 1.053, N-(1-((2,3-dihydrobenzo[b][1,4]dioxin-6-yl)methyl)piperidin-3-yl)-1H-indazol-5-amine]: 189 nM corresponded to half-maximal inhibition (IC50).

`Fc1ccc(CN2CCC[C@@H](Nc3ccc4[nH]ncc4c3)C2)cc1F` [Compound 1.073, (R)-N-(1-(3,4-difluorobenzyl)piperidin-3-yl)-1H-indazol-5-amine] came in with an IC50 of 111 nM.

Regarding `OCCOc1cccc(CN2CC[C@H](Nc3cccc4cnccc34)C2)c1` [Compound 2.032, (S)-2-(3-((3-(isoquinolin-5-ylamino)pyrrolidin-1-yl)methyl)phenoxy)ethanol], it took 5330 nM to reach half-maximal inhibition (IC50).

In the case of `NC(=O)c1cccc(CN2CCCC(Nc3ccc4[nH]ncc4c3)C2)c1` (stereo not shown) [Compound 1.055, 3-((3-(1H-indazol-5-ylamino)piperidin-1-yl)methyl)benzamide], half-maximal inhibition (IC50) was put at 472 nM.

Molecule `C#Cc1ccc(CN2CC[C@@H](Nc3cccc4cnccc34)C2)cc1` [Compound 2.031, (R)-N-(1-(4-ethynylbenzyl)pyrrolidin-3-yl)isoquinolin-5-amine] returned an IC50 of 87.1 nM.

`CS(=O)(=O)c1ccc(CN2CCC(Nc3ccc4[nH]ncc4c3)C2)cc1` (stereo not shown) [Compound 1.004, N-(1-(4-(methylsulfonyl)benzyl)pyrrolidin-3-yl)-1H-indazol-5-amine]: half-maximal inhibition (IC50) was put at 254 nM.

For the origin of these results see patent US8604218B2, “Cytoskeletal active rho kinase inhibitor compounds, composition and use” (Inspire Pharmaceuticals, Inc., priority 2006, dated 2013).
